Data as given in US20220235011A1, “PHTHALAZINONE COMPOUNDS AND USE THEREOF” (ST PHARM CO., LTD., priority 2019, published 2022).
Structures can show the parent of a compound that is named as a salt.

Biological target: T1, Sirt6 (Homo sapiens, UniProt Q8N6T7)
T1 construct: purchased CycLex CY-1156V2
Test: Measurement of Sirt6 Activity (CycLex Sirt6 Deacetylase Fluorometric Assay Kit)
Type: biochemical
Conditions: compound at 10 μM, fluorescence relative to the group without compound treatment (positive control group)
Procedure, shortened: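 Recombinant Sirt6 with fluoro-labelled acetyl-lysine peptide, NAD and lysylendopeptidase developer, compound added from 10× stock in PBS; 1 h at room temperature. Fluorescence read at ex 490/em 530 nm; activation expressed as fluorescence ratio relative to enzyme without compound.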

T1 sequence (Q8N6T7 whole entry): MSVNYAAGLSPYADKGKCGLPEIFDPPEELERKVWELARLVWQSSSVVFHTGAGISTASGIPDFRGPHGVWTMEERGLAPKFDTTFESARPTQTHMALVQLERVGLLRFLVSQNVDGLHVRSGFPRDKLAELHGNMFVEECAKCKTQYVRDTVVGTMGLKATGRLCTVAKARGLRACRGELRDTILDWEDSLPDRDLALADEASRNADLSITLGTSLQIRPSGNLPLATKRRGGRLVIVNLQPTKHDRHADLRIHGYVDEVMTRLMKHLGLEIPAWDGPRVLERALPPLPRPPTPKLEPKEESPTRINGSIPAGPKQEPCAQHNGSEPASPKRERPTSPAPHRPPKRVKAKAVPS

Compound | Sirt6 Activity (% activity, 10 μM) [% activity] | Sirt6 Activity (% activity, 10 μM) (10 µM) [% activity]
CCS(=O)(=O)N1CC=C(c2nn(-c3ccc(F)cc3F)c(=O)c3ccccc23)CC1 [Example 218, 2-(2,4-Difluorophenyl)-4-(1-(ethylsulfonyl)-1,2,3,6-tetrahydropyridin-4-yl)phthalazin-1(2H)-one] | 176.50 | 
N#Cc1cccc(-c2nn(-c3ccc(F)cc3)c(=O)c3ccccc23)c1 [Example 130, 3-(3-(4-Fluorophenyl)-4-oxo-3,4-dihydrophthalazin-1-yl)benzonitrile] | 120.16 | 
CC(C)(C(=O)O)c1cccc(-c2nn(C3CCCCC3)c(=O)c3ccccc23)c1 [Example 160, 2-(3-(3-Cyclohexyl-4-oxo-3,4-dihydrophthalazin-1-yl)phenyl)-2-methylpropanoic Acid] | 289.8 | 
O=c1c2ccccc2c(-c2ccc[n+]([O-])c2)nn1-c1c(F)cccc1F [Example 118, 3-(3-(2,6-Difluorophenyl)-4-oxo-3,4-dihydrophthalazin-1-yl)pyridine 1-oxide] | 231 | 
Cl.O=c1c2ccccc2c(C2=CCNCC2)nn1-c1ccc(F)cc1F [Example 215, 2-(2,4-Difluorophenyl)-4-(1,2,3,6-tetrahydropyridin-4-yl)phthalazin-1(2H)-one-hydrochloride] | 226.60 | 
CCS(=O)(=O)Nc1cccc(-c2nn(-c3ccc(F)cc3F)c(=O)c3ccccc23)c1 [Example 25, N-(3-(3-(2,4-Difluorophenyl)-4-oxo-3,4-dihydrophthalazin-1-yl)phenyl)ethanesulfonamide] | 147 | 
CCS(=O)(=O)Nc1cccc(-c2nn(Cc3ccc(F)cc3)c(=O)c3ccccc23)c1 [Example 63, N-(3-(3-(4-Fluorobenzyl)-4-oxo-3,4-dihydrophthalazin-1-yl)phenyl)ethanesulfonamide] | 103 | 
CCS(=O)(=O)NC1CCCCN(c2nn(-c3ccc(F)cc3)c(=O)c3ccccc23)C1 (stereo not shown) [Example 141, N-(1-(3-(4-Fluorophenyl)-4-oxo-3,4-dihydrophthalazin-1-yl)azepan-3-yl)ethanesulfonamide] | 212.55 | 
CN(c1cccc(-c2nn(-c3ccc(F)cc3)c(=O)c3ccccc23)c1)S(C)(=O)=O [Example 69, N-(3-(3-(4-Fluorophenyl)-4-oxo-3,4-dihydrophthalazin-1-yl)phenyl)-N-methylmethane Sulfonamide] | 209 | 
O=c1c2ccccc2c(N2CCCNCC2)nn1-c1ccc(F)cc1F [Example 184, 4-(1,4-Diazepan-1-yl)-2-(2,4-difluorophenyl)phthalazin-1(2H)-one-hydrochloride] | 176.80 | 
Cc1nc(C(C)(C)c2cccc(-c3nn(-c4ccc(F)cc4F)c(=O)c4ccccc34)c2)no1 [Example 174, 2-(2,4-Difluorophenyl)-4-(3-(2-(5-methyl-1,2,4-oxadiazol-3-yl)propan-2-yl)phenyl)phthalazin-1(2H)-one] | 114.2 | 
CC(C)(CN)c1cccc(-c2nn(-c3ccc(F)cc3F)c(=O)c3ccccc23)c1.Cl [Example 204, 4-(3-(1-Amino-2-methylpropan-2-yl)phenyl)-2-(2,4-difluorophenyl)phthalazin-1(2H)-one-hydro Chloride] | 161.50 | 
Cl.N[C@H]1CCCCN(c2nn(C3CCCCC3)c(=O)c3ccccc23)C1 [Example 155, (S)-4-(3-Aminoazepan-1-yl)-2-cyclohexyl phthalazin-1(2H)-one-hydrochloride] | 230.9 | 
CNS(=O)(=O)c1cccc(-c2nn(-c3ccc(F)cc3F)c(=O)c3ccc(F)cc23)c1 [Example 121, 3-(3-(2,4-Difluorophenyl)-7-fluoro-4-oxo-3,4-dihydrophthalazin-1-yl)-N-methylbenzenesulfonamide] | 157 | 
CN(C)S(=O)(=O)c1cccc(-c2nn(-c3ccccc3F)c(=O)c3ccccc23)c1 [Example 101, 3-(3-(2-Fluorophenyl)-4-oxo-3,4-dihydrophthalazin-1-yl)-N,N-dimethylbenzene Sulfonamide] | 153 | 
COc1ccc(-c2nn(-c3ccc(F)cc3)c(=O)c3ccccc23)cc1/C=[N+](\[O-])Cc1ccccc1 [Example 50, (Z)—N-Benzyl-1-(5-(3-(4-fluorophenyl)-4-oxo-3,4-dihydrophthalazin-1-yl)-2-methoxyphenyl)methanimine Oxide] | 105 | 
CCN(C)S(=O)(=O)c1cccc(-c2nn(-c3ccc(F)cc3F)c(=O)c3ccccc23)c1 [Example 216, 3-(3-(2,4-Difluorophenyl)-4-oxo-3,4-dihydrophthalazin-1-yl)-N-ethyl-N-methylbenzenesulfonamide] | 184.80 | 
CNS(=O)(=O)N(C)c1cccc(-c2nn(-c3ccc(F)cc3)c(=O)c3ccccc23)c1 [Example 80, N-(3-(3-(4-Fluorophenyl)-4-oxo-3,4-dihydrophthalazin-1-yl)phenyl)-N-methyl-methyl Sulfamoylamide] | 216 | 
CCS(=O)(=O)Nc1cccc(-c2nn(C3CCN(C)CC3)c(=O)c3ccccc23)c1 [Example 129, N-(3-(3-(1-Methylpiperidin-4-yl)-4-oxo-3,4-dihydrophthalazin-1-yl)phenyl)ethane Sulfonamide] | 104.16 | 
CS(=O)(=O)c1cccc(-c2nn(-c3ccccc3F)c(=O)c3ccccc23)c1 [Example 97, 2-(2-Fluorophenyl)-4-(3-(methylsulfonyl)phenyl)phthalazin-1(2H)-one] | 286 | 
CC(C)(C(=O)O)C1CCCN(c2nn(-c3ccc(F)cc3F)c(=O)c3ccccc23)C1 (stereo not shown) [Example 210-2, 2-(1-(3-(2,4-Difluorophenyl)-4-oxo-3,4-dihydrophthalazin-1-yl)piperidin-3-yl)-2-methylpropanoic Acid] |  | 100.50
O=c1c2ccccc2c(N2CCCCC(O)C2)nn1-c1ccc(Cl)cc1 (stereo not shown) [Example 196, 2-(4-Chlorophenyl)-4-(3-hydroxyazepan-1-yl)phthalazin-1(2H)-one] | 135.10 | 
O=c1c2ccccc2c(-c2ccc[n+]([O-])c2)nn1-c1ccc(F)cc1F [Example 117, 3-(3-(2,4-Difluorophenyl)-4-oxo-3,4-dihydrophthalazin-1-yl)pyridine 1-oxide] | 318 | 
CCNc1cccc(-c2nn(-c3ccc(C(F)(F)F)cc3)c(=O)c3ccccc23)c1 [Example 4, 4-(3-(Ethylamino)phenyl)-2-(4-(trifluoro-methyl)phenyl)phthalazin-1(2H)-one] | 102 | 
O=C1CCCCN(c2nn(-c3ccc(F)cc3F)c(=O)c3ccccc23)C1 [Example 193, 2-(2,4-Difluorophenyl)-4-(3-oxoazepan-1-yl)phthalazin-1 (2H)-one] | 206.10 | 
